In experiment [1] the test system is ATXN3 transcripts containing exon 4. Put plainly: ATXN3 Quantitative Splicing Assay (qPCR, E4E5 primers/probe). Type of experiment: cell-based. The settings on record: Homo sapiens, SK-N-MC cells, compounds for 24 h. The method, boiled down:
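SK-N-MC human neuroblastoma cells treated 24 h with compound from 30 μM to 0.6 nM, 24 h after plating. Lysate cDNA was run in TaqMan qPCR, with primers/probe E4E5 detecting exon 4-containing ATXN3 transcripts and E8E9 measuring total ATXN3.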
(In general: Real-time PCR tracks product formation cycle by cycle.)

Another experiment concerns ATXN3-HiBiT protein. Put plainly: ATXN3 Total Protein Assay (Kelly-ATXN3-HiBiT luminescence). The format is cell-based. The settings on record: Kelly-ATXN3-HiBiT cells, 48 h after addition of compound. The method, boiled down: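 Kelly cells with homozygous C-terminal HiBiT knock-in on endogenous ATXN3, 2000 per well, dosed 24 h after seeding. HiBiT lytic luminescence read 48 h after compound; sister plate read with CellTiter-Glo for viability; fold change vs DMSO.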
(HiBiT is a short tag that completes a luciferase, so light tracks the accessible tagged protein.)

The test system of the next experiment is total ATXN3 protein. Briefly: ATXN3 Total Protein Assay (Mesoscale Discovery, SK-N-MC cells). The settings on record: incubation for 48 hours, MSD assay. Type of experiment: cell-based, Human. Summed up:
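Human SK-N-MC neuroblastoma cells treated with compound at 30 μM to 0.6 nM for 48 h, then lysed with protease inhibitors. Total ATXN3 quantified by MSD sandwich immunoassay (mouse capture, rabbit detect antibodies, anti-rabbit MSD-ST secondary) against recombinant ATXN3 standards.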

IC50 and EC50 data for 28 compounds are collected here from US20260001889A1, “COMPOSITIONS USEFUL FOR MODULATING SPLICING” (Skyhawk Therapeutics, Inc., priority 2022, published 2026).

For orientation: IC50 means the concentration that gives 50% inhibition. Read a high IC50 as lower potency. In general, EC50 refers to the concentration needed to bring the measured effect to its halfway point. Low readings indicate greater potency, high ones weaker potency.

On to `C#Cc1c(C[C@@H](N)COC(F)F)oc2c(NCc3cccs3)cc(Cl)nc12` [Compound 196, 2-[(R)-2-amino-3-difluoromethoxypropyl]-5-chloro-3-ethynyl-7-thenylamino-1-oxa-4-azaindene], for which the IC50 (in experiment [1]; in the experiment on total ATXN3 protein) was 0.01 to 100 nM throughout. Also, the EC50 in the experiment with ATXN3-HiBiT protein was 0.01 to 100 nM.
For the compound `C[C@H](O)Cc1oc2c(NCc3cccs3)cc(Cl)nc2c1Br` [Compound 213, (S)-1-(3-bromo-5-chloro-7-thenylamino-1-oxa-4-aza-2-indenyl)-2-propanol], the IC50 (in experiment [1]; in the experiment on total ATXN3 protein) was 501 to 5000 nM throughout. In the experiment with ATXN3-HiBiT protein, this compound had an EC50 of 501 to 5000 nM.
For `N[C@@H](CCOC(F)F)Cc1oc2c(NCc3nccs3)cc(Cl)nc2c1Br` [Compound 216, 2-[(S)-2-amino-4-difluoromethoxybutyl]-3-bromo-5-chloro-7-{[(1,3-thiazol-2-yl)methyl]amino}-1-oxa-4-azaindene], the IC50 (in experiment [1]; in the experiment on total ATXN3 protein) was 101 to 500 nM throughout. Moreover, the EC50 with ATXN3-HiBiT protein was 101 to 500 nM.
As for `[2H]C([2H])(Nc1cc(Cl)nc2c(Br)c(C[C@H](C)N)oc12)c1cccs1` [Compound 221, 2-[(S)-2-aminopropyl]-3-bromo-5-chloro-7-{[(2-thienyl)(^2H2)methyl]amino}-1-oxa-4-azaindene], the IC50 (in experiment [1]; in the experiment with total ATXN3 protein) was 0.01 to 100 nM throughout. Also, the EC50 in the experiment with ATXN3-HiBiT protein was in the range of 0.01 to 100 nM.
With `[2H]C([2H])(Nc1cc(Cl)nc2c(Br)c(C[C@@H](N)CCOC(F)F)oc12)c1cccs1` [Compound 222, 2-[(S)-2-amino-4-difluoromethoxybutyl]-3-bromo-5-chloro-7-{[(2-thienyl)(^2H2)methyl]amino}-1-oxa-4-azaindene], the IC50 in experiment [1] is 101 to 500 nM; with total ATXN3 protein it was 0.01 to 100 nM. Also, the EC50 in the experiment with ATXN3-HiBiT protein was 0.01 to 100 nM.
In the case of `CC(C)(N)Cc1oc2c(NCc3cccs3)cc(Cl)nc2c1Br` [Compound 226, 2-(2-amino-2-methylpropyl)-3-bromo-5-chloro-7-thenylamino-1-oxa-4-azaindene], the IC50 (in experiment [1]; in the experiment with total ATXN3 protein) was 501 to 5000 nM in each case. Moreover, in the experiment on ATXN3-HiBiT protein, the concentration giving a half-maximal response (EC50) lay in the range of 501 to 5000 nM.
Consider `NC1(Cc2oc3c(NCc4cccs4)cc(Cl)nc3c2Br)CC1` [Compound 227, 2-[(1-aminocyclopropyl)methyl]-3-bromo-5-chloro-N-(thiophen-2-ylmethyl)furo[3,2-b]pyridin-7-amine], for which the IC50 (in experiment [1]; in the experiment with total ATXN3 protein) was 501 to 5000 nM each time. In the experiment with ATXN3-HiBiT protein, this compound registered an EC50 of 501 to 5000 nM.
With `C[C@H](F)[C@H](N)Cc1oc2c(NCc3cccs3)cc(Cl)nc2c1C#N` [Compound 237, 2-[(2R,3S)-2-amino-3-fluorobutyl]-5-chloro-7-[(thiophen-2-ylmethyl)amino]furo[3,2-b]pyridine-3-carbonitrile], the figures for the IC50 (in experiment [1]; in the experiment on total ATXN3 protein) were 10000 to 40000 nM and 5000 to 10000 nM, respectively. In the experiment with ATXN3-HiBiT protein, this compound yielded an EC50 of 10000 to 40000 nM.
For the compound `C[C@H](N)Cc1oc2c(NCc3ccco3)cc(Cl)nc2c1C#N` [Compound 238, 2-[(S)-2-aminopropyl]-5-chloro-7-(furfurylamino)-1-oxa-4-aza-3-indenecarbonitrile], the IC50 (in experiment [1]; in the experiment on total ATXN3 protein) was 10000 to 40000 nM throughout. The compound further gave an EC50 in the experiment on ATXN3-HiBiT protein of 10000 to 40000 nM.
Regarding `C[C@H](N)C(F)(F)c1oc2c(NCc3ccco3)cc(Cl)nc2c1Cl` [Compound 239, 2-[(S)-2-amino-1,1-difluoropropyl]-3,5-dichloro-7-(furfurylamino)-1-oxa-4-azaindene], the IC50 (in experiment [1]; in the experiment on total ATXN3 protein) was 101 to 500 nM in each case. In the experiment on ATXN3-HiBiT protein, this compound yielded an EC50 of 101 to 500 nM.
On to `C[C@H](F)[C@H](N)Cc1oc2c(NCc3cccs3)cc(Cl)nc2c1C1CC1` [Compound 240, 2-[(2R,3S)-2-amino-3-fluorobutyl]-5-chloro-3-cyclopropyl-7-thenylamino-1-oxa-4-azaindene], for which the IC50 (in experiment [1]; in the experiment with total ATXN3 protein) was 501 to 5000 nM throughout. Further, the EC50 in the experiment on ATXN3-HiBiT protein was 501 to 5000 nM.
Regarding `N[C@H](Cc1oc2c(NCc3cccs3)cc(Cl)nc2c1Br)C(F)F` [Compound 242, 2-[(R)-2-amino-3,3-difluoropropyl]-3-bromo-5-chloro-7-thenylamino-1-oxa-4-azaindene], the IC50 (in experiment [1]; in the experiment on total ATXN3 protein) was 101 to 500 nM throughout. In addition, the EC50 with ATXN3-HiBiT protein lay in the range of 101 to 500 nM.
As for `N[C@H](Cc1oc2c(NCc3ccco3)cc(Cl)nc2c1Br)C(F)F` [Compound 243, 2-[(R)-2-amino-3,3-difluoropropyl]-3-bromo-5-chloro-7-(furfurylamino)-1-oxa-4-azaindene], the IC50 in experiment [1] was 501 to 5000 nM; in the experiment on total ATXN3 protein it was 101 to 500 nM. In the experiment with ATXN3-HiBiT protein, the EC50 was 501 to 5000 nM.
On to `C=C(C)c1c(C[C@H](C)N)oc2c(NCc3cccs3)cc(Cl)nc12` [Compound 252, 2-[(S)-2-aminopropyl]-5-chloro-3-isopropenyl-7-thenylamino-1-oxa-4-azaindene], for which the values for the IC50 (in experiment [1]; in the experiment with total ATXN3 protein) were 10000 to 40000 nM and 5000 to 10000 nM, respectively. For the same compound, in the experiment on ATXN3-HiBiT protein, the EC50 is 501 to 5000 nM.
For `C/C=C/c1c(C[C@H](C)N)oc2c(NCc3cccs3)cc(Cl)nc12` [Compound 253, 3-[(E)-1-propenyl]-2-[(S)-2-aminopropyl]-5-chloro-7-thenylamino-1-oxa-4-azaindene], the IC50 (in experiment [1]; in the experiment on total ATXN3 protein) was 501 to 5000 nM each time. The compound also displayed an EC50 in the experiment on ATXN3-HiBiT protein of 10000 to 40000 nM.
`C/C=C\c1c(C[C@H](C)N)oc2c(NCc3cccs3)cc(Cl)nc12` [Compound 254, 2-[(S)-2-aminopropyl]-3-[(Z)-1-propenyl]-5-chloro-7-thenylamino-1-oxa-4-azaindene]: the IC50 (in experiment [1]; with total ATXN3 protein) was 501 to 5000 nM in each case. The half-maximal effective concentration (EC50) in the experiment with ATXN3-HiBiT protein was in the range of 501 to 5000 nM.
As for `C[C@H](N)Cc1oc2c(NCc3cccs3)cc(Cl)nc2c1-c1cccs1` [Compound 256, 2-[(S)-2-aminopropyl]-5-chloro-7-thenylamino-3-(2-thienyl)-1-oxa-4-azaindene], the IC50 lay within 10000 to 40000 nM in experiment [1] and 5000 to 10000 nM in the experiment on total ATXN3 protein. Further, the EC50 in the experiment on ATXN3-HiBiT protein is 10000 to 40000 nM.
Turning to `C[C@H](N)Cc1oc2c(NCc3cccs3)cc(Cl)nc2c1-c1nccs1` [Compound 257, 2-[(S)-2-aminopropyl]-5-chloro-7-thenylamino-3-(1,3-thiazol-2-yl)-1-oxa-4-azaindene], the IC50 (in experiment [1]; in the experiment with total ATXN3 protein) was 10000 to 40000 nM in each case. This compound had a half-maximal effective concentration (EC50) in the experiment on ATXN3-HiBiT protein of 10000 to 40000 nM.
In the case of `C[C@H](N)Cc1oc2c(NCc3cccs3)cc(Cl)nc2c1-c1ccsc1` [Compound 260, 2-[(S)-2-aminopropyl]-5-chloro-7-thenylamino-3-(3-thienyl)-1-oxa-4-azaindene], the IC50 in experiment [1] was in the range of 10000 to 40000 nM; in the experiment on total ATXN3 protein it was 501 to 5000 nM. Moreover, the EC50 in the experiment with ATXN3-HiBiT protein was in the range of 10000 to 40000 nM.
As for `C[C@H](N)Cc1oc2c(NCc3cccs3)cc(Cl)nc2c1-c1ncco1` [Compound 262, 2-[(S)-2-aminopropyl]-5-chloro-3-(1,3-oxazol-2-yl)-7-thenylamino-1-oxa-4-azaindene], the IC50 (in experiment [1]; in the experiment with total ATXN3 protein) was 101 to 500 nM in each case. Moreover, the EC50 in the experiment with ATXN3-HiBiT protein was 101 to 500 nM.
Take `C[C@H](N)Cc1oc2c(NCc3cccs3)cc(Cl)nc2c1-c1cscn1` [Compound 263, 2-[(S)-2-aminopropyl]-5-chloro-7-thenylamino-3-(1,3-thiazol-4-yl)-1-oxa-4-azaindene]: the IC50 (in experiment [1]; in the experiment with total ATXN3 protein) was 501 to 5000 nM each time. Moreover, the EC50 with ATXN3-HiBiT protein lay in the range of 501 to 5000 nM.
On to `C[C@H](N)Cc1oc2c(NCc3cccs3)c(F)c(Cl)nc2c1Br` [Compound 275, 2-[(S)-2-aminopropyl]-3-bromo-5-chloro-6-fluoro-7-thenylamino-1-oxa-4-azaindene], for which the IC50 (in experiment [1]; in the experiment with total ATXN3 protein) was 501 to 5000 nM each time. Moreover, the EC50 in the experiment with ATXN3-HiBiT protein is 501 to 5000 nM.
In the case of `C#Cc1c(C[C@H](C)N)oc2c(NCc3cccs3)c(F)c(Cl)nc12` [Compound 276, 2-[(S)-2-aminopropyl]-5-chloro-3-ethynyl-6-fluoro-7-thenylamino-1-oxa-4-azaindene], the 50% inhibitory concentration (IC50) (in experiment [1]; in the experiment on total ATXN3 protein) was 501 to 5000 nM in each case. The compound also gave an EC50 in the experiment with ATXN3-HiBiT protein of 501 to 5000 nM.
Regarding `C[C@H](F)[C@H](N)Cc1oc2c(NCc3cccs3)c(F)c(Cl)nc2c1Br` [Compound 277, 2-[(2R,3S)-2-amino-3-fluorobutyl]-3-bromo-5-chloro-6-fluoro-7-thenylamino-1-oxa-4-azaindene], the IC50 (in experiment [1]; in the experiment on total ATXN3 protein) was 501 to 5000 nM throughout. The same compound returned an EC50 with ATXN3-HiBiT protein of 501 to 5000 nM.
Regarding `[2H][C@](N)(COC)Cc1oc2c(NCc3cccs3)cc(Cl)nc2c1Br` [Compound 285, 2-[(R)-2-amino-3-methoxy(2-^2H)propyl]-3-bromo-5-chloro-7-thenylamino-1-oxa-4-azaindene], the IC50 in experiment [1] lay in the range of 101 to 500 nM; with total ATXN3 protein, 0.01 to 100 nM. For the same compound, the EC50 with ATXN3-HiBiT protein was 0.01 to 100 nM.
Take `C[C@H](N)Cc1oc2c(NCc3cccs3)cc(C(N)=O)nc2c1Br` [Compound 288, 2-[(S)-2-aminopropyl]-3-bromo-7-thenylamino-1-oxa-4-aza-5-indenecarboxamide]: the IC50 (in experiment [1]; in the experiment with total ATXN3 protein) was 10000 to 40000 nM throughout. Also, the EC50 with ATXN3-HiBiT protein was in the range of 10000 to 40000 nM.
As to `CC#C[C@@H](Cc1oc2c(NCc3cccs3)cc(Cl)nc2c1Br)NC` [Compound 295, 3-bromo-5-chloro-2-[(2R)-2-(methylamino)pent-3-yn-1-yl]-N-(thiophen-2-ylmethyl)furo[3,2-b]pyridin-7-amine], the IC50 (in experiment [1]; in the experiment with total ATXN3 protein) was 501 to 5000 nM in each case. This compound came in with an EC50 in the experiment on ATXN3-HiBiT protein of 101 to 500 nM.
As to `[2H]C([2H])(c1oc2c(NCc3cccs3)cc(Cl)nc2c1Br)[C@@H](N)COC` [Compound 304, 2-[(R)-2-amino-3-methoxy(1,1- ^2H2)propyl]-3-bromo-5-chloro-7-thenylamino-1-oxa-4-azaindene], the IC50 (in experiment [1]; in the experiment with total ATXN3 protein) was 0.01 to 100 nM each time. Also, the EC50 in the experiment on ATXN3-HiBiT protein was in the range of 0.01 to 100 nM.
